Assay results taken from the C3SDB collision cross section collection.

Conditions: instrument: DT, stepped-field

SMILES	collision cross section (N2) ([M+Na]+)	collision cross section (N2) ([M+2Na-H]+)	collision cross section (N2) ([M+H]+)	further results
CCCCCCCCCCCCC=CC[C@@H](O)[C@H](CO[C@@H]1O[C@H](CO)[C@@H](O)C(O)C1O)NC(=O)CC=CCCCCCCCCCCCCCCCCCCC (some centres not stated) [GlcCer(41:02)]	296.1 Å²			
CCCCCCCCCCCCC=CC[C@@H](O)[C@H](CO[C@@H]1O[C@H](CO)[C@@H](O)C(O)C1O)NC(=O)CC=CCC=CCCCCCCCCCCCCCCCCC (some centres not stated) [GlcCer(42:03)]	297.28 Å²			
CCCCCCCCCCCCC=CC[C@@H](O)[C@H](CO[C@@H]1O[C@H](CO)[C@@H](O)C(O)C1O)NC(=O)CC=CCC=CCCCCCCCCCCCCCCCCCC (some centres not stated) [GlcCer(43:03)]	300.75 Å²			
CCCCCCCCCCCCC=CC[C@@H](O)[C@H](CO[C@@H]1O[C@H](CO)[C@@H](O)C(O)C1O)NC(=O)CCCCCCCCCCCCCCCCCCCCCCCCCCCCCC (some centres not stated) [GlcCer(49:01)]				collision cross section (N2) ([M+Na-2H2O]+): 317.53 Å²
CCCCCCCCCCCCC=CC[C@@H](O)[C@H](CO[C@@H]1O[C@H](CO)[C@@H](O)C(O)C1O)NC(=O)CC=CCC=CCC=CCCCCCCCCCCCCCCCCCCCCCC (some centres not stated) [GlcCer(50:04)]				collision cross section (N2) ([M+H-2H2O]+): 314.25 Å²
CCCCC/C=C\C/C=C\CCCCCCCCCCCC(=O)O[C@H](COC(=O)CCCCCCCCCCCC)COP(=O)(O)O [PA(35:02)]		270 Å²		
CC/C=C\C/C=C\C/C=C\C/C=C\CCCCC(=O)O[C@H](COC(=O)CCCCCCC/C=C\CCCCCCCC)COP(=O)(O)O [PA(36:05)]		269.3 Å²		
CC/C=C\C/C=C\C/C=C\C/C=C\C/C=C\C/C=C\CCC(=O)O[C@H](COC(=O)CCCCCCCCCCCCCCCCC)COP(=O)(O)O [PA(40:06)]		280.58 Å²		
CCCCCCCCCCCCCCCCCCCC(=O)OC[C@H](COP(=O)([O-])OCC[N+](C)(C)C)OC(=O)CCCCCCCCCCC [PC(32:00)]	280.56 Å²		278.4 Å²	collision cross section (N2) ([M+HCOO]-): 286.82 Å²
CCCCCCCCCCCCCCCCCCCCCCCC(=O)O[C@H](COC(=O)CCCCCCCCC)COP(=O)([O-])OCC[N+](C)(C)C [PC(34:00)]		286.12 Å²		
CCCCC/C=C\C=C/CCCCCCCCC(=O)O[C@H](COC(=O)CCCCCCCCCCCCCCCCC)COP(=O)([O-])OCC[N+](C)(C)C [PC(36:02)]	288.63 Å²	290.39 Å²	285.92 Å²	collision cross section (N2) ([M+Cl]-): 295.12 Å²; collision cross section (N2) ([M+HCOO]-): 295.45 Å²; collision cross section (N2) ([M+K]+): 289.17 Å²
CC/C=C/C=C/C=C/C=C/CCCCCCCC(=O)O[C@H](COC(=O)CCCCCCCCCCCCCCCCC)COP(=O)([O-])OCC[N+](C)(C)C [PC(36:04)]	285.05 Å²			collision cross section (N2) ([M+Cl]-): 293.08 Å²; collision cross section (N2) ([M+HCOO]-): 292.86 Å²
CC/C=C\C/C=C\C/C=C\C/C=C\C/C=C\CCCCCC(=O)O[C@H](COC(=O)CCCCCCCCCCCCCCC)COP(=O)([O-])OCC[N+](C)(C)C [PC(38:05)]				collision cross section (N2) ([M+Cl]-): 297.1 Å²; collision cross section (N2) ([M+HCOO]-): 297.3 Å²
CC/C=C\C/C=C\C/C=C\C/C=C\C/C=C\CCCCCC(=O)O[C@H](COC(=O)CCCCCCCCCCCCCCCCC)COP(=O)([O-])OCC[N+](C)(C)C [PC(40:05)]	295.77 Å²			
CCCCCCCC/C=C\CCCCCCCC(=O)O[C@H](COC(=O)CCCCCCCCCCCCCCCCC)COP(=O)(O)OCCN [PE(36:01)]	282.21 Å²	283.74 Å²	277.02 Å²	collision cross section (N2) ([M-H]-): 273.62 Å²
CCCCC/C=C\CCCCCCCC(=O)OC[C@H](COP(=O)(O)OCCN)OC(=O)CCCCCCCCCCCCCCCCCCCCC [PE(37:01)]	284.35 Å²	286.74 Å²		
CCCCCCCC/C=C\CCCCCCCC(=O)OC[C@H](COP(=O)(O)OCCN)OC(=O)CCCCCCC/C=C\CCCCCCCCC [PE(37:02)]	282.21 Å²	285.18 Å²		
CCCCC/C=C\C/C=C\CCCCCCCCCCCC(=O)O[C@H](COC(=O)CCCCCCCCCCCCCCC)COP(=O)(O)OCCN [PE(38:02)]		288.8 Å²		

SMILES	collision cross section (N2) ([M+Na]+)	collision cross section (N2) ([M+2Na-H]+)	collision cross section (N2) ([M+H]+)	further results
CC/C=C\C/C=C\C/C=C\C/C=C\CCCCC(=O)O[C@H](COC(=O)CCCCCCCCCCCCCCCCCCC)COP(=O)(O)OCCN [PE(38:04)]		284.96 Å²		collision cross section (N2) ([M+K]+): 284.45 Å²; collision cross section (N2) ([M-H]-): 276.04 Å²
CCCCC/C=C\C/C=C\C/C=C\CCCCC(=O)OC[C@H](COP(=O)(O)OCCN)OC(=O)CCCCCCCCCCC/C=C\C/C=C\CCCCC [PE(40:05)]	289.38 Å²	289.53 Å²		collision cross section (N2) ([M-H]-): 280.89 Å²
CCCCCC/C=C\CCCCCCCC(=O)O[C@H](COCCCCCCCCCCCCCCCCCC)COP(=O)(O)OCCN [PE(o34:01)]	275.79 Å²	276.22 Å²		
CCCCCCCC/C=C\CCCCCCCCCC(=O)O[C@H](COCCCCCCCCCCCCCCCC)COP(=O)(O)OCCN [PE(o36:01)]	281.66 Å²	283.23 Å²	277.08 Å²	
CCCCC/C=C\C/C=C\CCCCCCCC(=O)O[C@H](COCCCCCCCCCCCCCCCCCC)COP(=O)(O)OCCN [PE(o36:02)]	280.37 Å²	280.9 Å²	274.98 Å²	
CC/C=C\C/C=C\C/C=C\C/C=C\C/C=C\C/C=C\CCC(=O)O[C@H](COCCCCCCCCCCCCCCCC)COP(=O)(O)OCCN [PE(o38:06)]		280.85 Å²		
CC/C=C\C/C=C\C/C=C\C/C=C\C/C=C\C/C=C\CCC(=O)O[C@H](COCCCCCCCCCCCCCCCCCC)COP(=O)(O)OCCN [PE(o40:06)]		288.19 Å²		
CCCCCCCC/C=C\CCCCCCCC(=O)OC[C@H](COP(=O)(O)OC[C@H](N)C(=O)O)OC(=O)CCCCCCC/C=C\CCCCCCCC [PS(36:02)]		285.97 Å²	280.92 Å²	collision cross section (N2) ([M+K]+): 285.23 Å²; collision cross section (N2) ([M-H]-): 281.82 Å²
CCCCCCCCCC/C=C\CCCCCCCCCC(=O)O[C@H](COC(=O)CCCCCCCCCCCCCCC)COP(=O)(O)OC[C@H](N)C(=O)O [PS(38:01)]		295.38 Å²	289.63 Å²	
CCCCC/C=C\C/C=C\CCCCCCCCCCCC(=O)O[C@H](COC(=O)CCCCCCC/C=C\CCCCCC)COP(=O)(O)OC[C@H](N)C(=O)O [PS(38:03)]				collision cross section (N2) ([M-H]-): 286.53 Å²
CCCCC/C=C\C/C=C\C/C=C\C/C=C\CCCCCC(=O)O[C@H](COC(=O)CCCCCCCCCCCCCCCC)COP(=O)(O)OC[C@H](N)C(=O)O [PS(39:04)]		291.95 Å²		
CCCCCCCC/C=C\CCCCCCCCCC(=O)OC[C@H](COP(=O)(O)OC[C@H](N)C(=O)O)OC(=O)CCCCCCCCCCCCCCCCCCC [PS(40:01)]		301.13 Å²	295.93 Å²	
CCCCC/C=C\C/C=C\C/C=C\CCCCC(=O)OC[C@H](COP(=O)(O)OC[C@H](N)C(=O)O)OC(=O)CCCCCCCCC/C=C\CCCCCCCCCC [PS(40:04)]	295.22 Å²	298.27 Å²	291.15 Å²	collision cross section (N2) ([M+K]+): 295.44 Å²; collision cross section (N2) ([M-H]-): 291.3 Å²
CCCCC/C=C\C/C=C\C/C=C\C/C=C\CCCC(=O)O[C@H](COC(=O)CCCCCCCCC/C=C\CCCCCCCC)COP(=O)(O)OC[C@H](N)C(=O)O [PS(40:05)]	293.82 Å²	297.17 Å²	289.6 Å²	collision cross section (N2) ([M+K]+): 294.22 Å²; collision cross section (N2) ([M-H]-): 290.27 Å²
CC/C=C\C/C=C\C/C=C\C/C=C\C/C=C\C/C=C\CCC(=O)O[C@H](COC(=O)CCCCCCC/C=C\C/C=C\C/C=C\CC)COP(=O)(O)OC[C@H](N)C(=O)O [PS(40:09)]		284.82 Å²		
CCCCC/C=C\C/C=C\CCCCCCCCCCCC(=O)O[C@H](COC(=O)CCCCCCCCCCCCCCCCCCC)COP(=O)(O)OC[C@H](N)C(=O)O [PS(42:02)]	302 Å²	306.07 Å²	299.5 Å²	
CCCCC/C=C\C/C=C\CCCCCCCCCCCC(=O)O[C@H](COC(=O)CCCCCCCCC/C=C\CCCCCCCC)COP(=O)(O)OC[C@H](N)C(=O)O [PS(42:03)]			298.03 Å²	
CCCCC/C=C\C/C=C\C/C=C\CCCCCCC(=O)OC[C@H](COP(=O)(O)OC[C@H](N)C(=O)O)OC(=O)CCCCCCCCC/C=C\CCCCCCCCCC [PS(42:04)]	298.86 Å²	304.19 Å²	296.39 Å²	
